Laboratory results: patent publication US4200575A, “7[(2-Thiazolyl)-2-(oxoimino)acetamido]cephalosporin derivatives” (Takeda Chemical Industries, Ltd., priority 1977, dated 1980)

Tests used:
Test in all cases: Minimal inhibitory concentration (M.I.C.), agar dilution method
Details in all cases: TSA, inoculum 10^7 /ml
S. aureus 1840 = format: cell-based, Staphylococcus aureus
Text: (§1) (a) Determination of minimal inhibitory concentrations (Tables 1 to 8):
(§2) Procedure: agar dilution method

S. aureus 209P = format: cell-based, Staphylococcus aureus
Text: as §1, §2

E. coli NIHJ JC-2 = format: cell-based, Escherichia coli
Text: as §1, §2

E. coli T-7 = format: cell-based, Escherichia coli
Text: as §1, §2

E. coli 0-111 = format: cell-based, Escherichia coli
Text: The minimal inhibitory concentrations (M.I.C.) of some representative cephalosporin derivatives of this invention as produced by the procedures described in those examples and the minimal inhibitory concentrations of cephalothin [sodium 7-(2-thienylacetamido)-3-acetoxymethyl-3-cephem-4-carboxylate], cephaloridine [7-(2-thienylacetamido)-3-(1-pyridyl)methyl-3-cephem-4-carboxylic acid betaine] and cefazolin [sodium 7-(1H-tetrazol-1-yl)acetamido-3-(2-methyl-1,3,4-thiadiazol-5-yl)thiomethyl-3-cephem-4-carboxylate], which are among the clinically established and commercially available cephalosporins (as described, for example, in the New England Journal of Medicine 294, 24, 1976 and Journal of Pharmaceutical Science 64, 1899, 1975), both against various bacteria, as well as the therapeutic effects of some respresentative cephalosporin derivatives of this invention and of cephaloridine in infected mice, are shown in tables.
as §1, §2

K. pneumoniae DT = format: cell-based, Klebsiella pneumoniae
Text: as §1, §2

K. pneumoniae GN 3835 = format: cell-based, Klebsiella pneumoniae
Text: as §1, §2

S. marcescens IFO 12648 = format: cell-based, Serratia marcescens
Text: as §1, §2

S. marcescens TN 24 = format: cell-based, Serratia marcescens
Text: as §1, §2

P. vulgaris GN 4413 = format: cell-based, Proteus vulgaris
Text: as §1, §2

P. vulgaris IFO 3988 = format: cell-based, Proteus vulgaris
Text: as §1, §2

P. mirabilis GN 4359 = format: cell-based, Proteus mirabilis
Text: as §1, §2

P. morganii IFO 3168 = format: cell-based, Proteus morganii
Text: as §1, §2

P. rettgeri GN4733 = format: cell-based, Proteus rettgeri
Text: as §1, §2

P. rettgeri TN 338 = format: cell-based, Proteus rettgeri
Text: as §1, §2

E. cloacae TN 1282 = format: cell-based, Enterobacter cloacae
Text: as §1, §2

C. freundii GN 1706 = format: cell-based, Citrobacter freundii
Text: as §1, §2

C. freundii GN 99 = format: cell-based, Citrobacter freundii
Text: as §1, §2

SMILES	minimal inhibitory concentration (M.I.C.) (S. aureus 1840)	minimal inhibitory concentration (M.I.C.) (S. aureus 209P)	minimal inhibitory concentration (M.I.C.) (E. coli NIHJ JC-2)	minimal inhibitory concentration (M.I.C.) (E. coli T-7)	minimal inhibitory concentration (M.I.C.) (E. coli 0-111)	minimal inhibitory concentration (M.I.C.) (K. pneumoniae DT)	minimal inhibitory concentration (M.I.C.) (K. pneumoniae GN 3835)	minimal inhibitory concentration (M.I.C.) (S. marcescens IFO 12648)	minimal inhibitory concentration (M.I.C.) (S. marcescens TN 24)	minimal inhibitory concentration (M.I.C.) (P. vulgaris GN 4413)	minimal inhibitory concentration (M.I.C.) (P. vulgaris IFO 3988)	minimal inhibitory concentration (M.I.C.) (P. mirabilis GN 4359)	minimal inhibitory concentration (M.I.C.) (P. morganii IFO 3168)	minimal inhibitory concentration (M.I.C.) (P. rettgeri GN4733)	minimal inhibitory concentration (M.I.C.) (P. rettgeri TN 338)	minimal inhibitory concentration (M.I.C.) (E. cloacae TN 1282)	minimal inhibitory concentration (M.I.C.) (C. freundii GN 1706)	minimal inhibitory concentration (M.I.C.) (C. freundii GN 99)
CNC(=O)O/N=C(\C(=O)NC1C(=O)N2C(C(=O)[O-])=C(C[n+]3ccc(C(N)=O)cc3)CSC12)c1csc(=N)[nH]1 (stereo not drawn) [Example IV - 2, 7-[2-(2-imino-4-thiazolin-4-yl)-2-methylcarbamoyloximinoacetamido]-3-(4-carbamoylpyridiniummethyl)-3-cephem-4-carboxylate (syn-isomer)]	3.13	3.13	0.78	6.25	0.2	0.39	1.56	3.13	3.13	12.5	0.78	1.56	0.78	0.78	0.1	3.13	1.56	0.78
CC(=O)OCC1=C(C(=O)[O-])N2C(=O)C(NC(=O)Cc3cccs3)[C@H]2SC1.[Na+] (stereo partly drawn) [Cephalothin, sodium 7-(2-thienylacetamido)-3-acetoxymethyl-3-cephem-4-carboxylate, reference compound]	0.39	0.20	12.5	100	3.13	1.56	12.5	> 100	> 100	> 100	1.56	3.13	> 100	> 100	1.56	> 100	> 100	25
CCCCNC(=O)O/N=C(\C(=O)NC1C(=O)N2C(C(=O)O)=C(C)CSC12)c1csc(=N)[nH]1 (stereo not drawn) [Example II - 23]	12.5	12.5	12.5	25	6.25	3.13	6.25	100	> 100	50	12.5	3.13	100	0.39	0.1	100	25	12.5
CC(C)NC(=O)O/N=C(\C(=O)NC1C(=O)N2C(C(=O)O)=C(COC(N)=O)CSC12)c1csc(=N)[nH]1 (stereo not drawn) [Example II - 17]	3.13	1.56	0.39	3.13	0.05	0.1	0.39	6.25	25	100	0.39	0.1	1.56	0.1	≤ 0.012	6.25	0.78	0.39
CNC(=O)O/N=C(\C(=O)NC1C(=O)N2C(C(=O)O)=C(CSc3nc(CC(=O)O)cs3)CSC12)c1csc(=N)[nH]1 (stereo not drawn) [Example IV - 7]	12.5	12.5	0.78	6.25	≤ 0.2	≤ 0.2	0.39	3.13	6.25	50	≤ 0.2	≤ 0.2	0.78	0.39	≤ 0.2	12.5	3.13	0.78
CNC(=O)O/N=C(\C(=O)NC1C(=O)N2C(C(=O)O)=C(CSc3nnc(C)o3)CSC12)c1csc(=N)[nH]1 (stereo not drawn) [Example IV - 10]	3.13	1.56	0.39	6.25	≤ 0.2	≤ 0.2	0.78	6.25	6.25	25	0.39	0.39	0.39	0.78	≤ 0.2	3.13	0.78	0.39
CCCNC(=O)O/N=C(\C(=O)NC1C(=O)N2C(C(=O)O)=C(CSc3nnnn3C)CSC12)c1csc(=N)[nH]1 (stereo not drawn) [Example II - 14]	3.13	1.56	0.39	3.13	0.024	0.1	0.39	3.13	3.13	12.5	0.1	0.39	0.2	0.2	≤ 0.012	3.13	0.39	0.2
